From patent US7268128B2, “1,3,5-trisubstituted-5-phenyl and 5-pyridyl pyrazolopyrimidinone derivatives having PDE7 inhibiting action” (Ausbio Pharma Co., Ltd., priority 2001, dated 2007)

target: T1, PDE7 (type VII phosphodiesterase) (Homo sapiens, UniProt Q13946); assay: PDE7 inhibiting activity (3H-cAMP hydrolysis, active fraction from MOLT-4 cells); type: biochemical; conditions: PDE7 fraction from MOLT-4 cells, 0.064 μM cAMP, 10 μM rolipram present, 2 hours at 25° C.; read-out: IC50 values for phosphodiesterase inhibiting activities (PDE7)
T1 construct: endogenous in cells; host or cells: MOLT-4 (ATCC CRL-1582), soluble fraction, HiTrapQ anion-exchange fraction
Protocol: To evaluate the compounds of the present invention for the ability to suppress PDE7 (type VII phosphodiesterase), the method of Biochemical Pharmacol. 48(6), 1219-1223 (1994) was partially modified to perform the following assay:
1) PDE7 (type VII phosphodiesterase) active fraction was obtained. That is, human acute lymphoblastoid lymphoma T cell strain MOLT-4 (purchasable from ATCC under ATCC No. CRL-1582) was cultured in RPMI1640 medium containing 10% fetal bovine serum to obtain 5×10^8 MOLT4 cells. The cells were harvested by centrifugation, and suspended in 10 ml of buffer A (25 mM tris-HCl, 5 mM 2-mercaptoethanol, 2 mM benzamidine, 2 mM EDTA, 0.1 mM 4-(2-aminoethyl)benzenesulfonyl hydrochloride, pH 7=7.5). The cells were homogenized in a Polytoron homogenizer, and centrifuged (4° C., 25,000 G, 10 min). The supernatant was further ultracentrifuged (4° C., 100,000 G, 60 min), and the resulting supernatant was filtered through a 0.2 μm filter to obtain a soluble fraction.
2) HiTrapQ column (5 ml×2) equilibrated with buffer A was charged with the resulting soluble fraction. Phosphodiesterase was eluted using 300 ml of buffer A containing a linear gradient solution of 0 to 0.8M sodium chloride to collect sixty 5 ml fractions. Each fraction was tested for cAMP metabolizing phosphodiesterase activity.
3) The test compounds at desired concentrations were each reacted for 2 hours at 25° C. in a reactant mixture containing 20 mM tris-HCl (pH 7.5), 1 mM MgCl2, 100 μM EDTA, 330 μg/ml bovine serum albumin, 4 μg/ml 5′-nucleotidase, 0.1 μCi^3H-cAMP (0.064 μM cAMP), 10 μM rolipram, and the type VII phosphodiesterase stored solution. QAE-Sephadex suspended in 10 mM HEPES-Na (pH 7.0) was added to the reaction mixture, and the mixture was allowed to stand for 5 minutes. Then, the supernatant was recovered, and QAE-Sephadex was further added, followed by allowing the mixture to stand for 5 minutes. Then, the resulting supernatant was measure for radioactivity.
4) IC50, as the concentration of the test compound that inhibited 50% of the metabolic activity of PDE7, was calculated for each of the compounds.

T1 sequence (Q13946 whole entry): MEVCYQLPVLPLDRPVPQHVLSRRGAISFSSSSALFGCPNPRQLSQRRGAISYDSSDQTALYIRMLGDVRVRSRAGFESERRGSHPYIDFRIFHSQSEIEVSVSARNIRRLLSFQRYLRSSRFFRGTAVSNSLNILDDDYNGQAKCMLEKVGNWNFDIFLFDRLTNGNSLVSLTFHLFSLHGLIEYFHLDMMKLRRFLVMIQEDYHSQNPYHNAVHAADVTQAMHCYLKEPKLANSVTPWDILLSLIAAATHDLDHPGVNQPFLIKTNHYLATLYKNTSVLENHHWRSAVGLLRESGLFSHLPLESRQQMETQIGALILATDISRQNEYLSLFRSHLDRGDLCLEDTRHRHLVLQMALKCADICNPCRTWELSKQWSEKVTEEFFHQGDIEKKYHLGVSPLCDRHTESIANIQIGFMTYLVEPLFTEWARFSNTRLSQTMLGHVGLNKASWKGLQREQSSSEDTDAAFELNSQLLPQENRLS

Row | Compound | IC50
1 | COc1cc(N2CCC(OC)CC2)ccc1-c1nc2c(c(C3CCCCC3)nn2C)c(=O)[nH]1 [Example 62, 3-Cyclohexyl-6-[2-methoxy-4-(4-methoxy-1-piperidinyl)phenyl]-1-methyl-1,5-dihydro-4H-pyrazolo[3,4-d]pyrimidin-4-one monomethanesulfonate] | ≤ 10 nM
2 | COc1cc(N2CCN(C)CC2)ccc1-c1nc2c(c(C3CCCCCC3)nn2C)c(=O)[nH]1 [Example 64, 3-Cycloheptyl-6-[2-methoxy-4-(4-methyl-1-piperazinyl)phenyl]-1-methyl-1,5-dihydro-4H-pyrazolo[3,4-d]pyrimidin-4-one] | ≤ 1000 nM
3 | COc1cc(C(=O)O)ccc1-c1nc2c(c(C3CCCCC3)nn2C)c(=O)[nH]1 [Example 65, 4-(3-Cyclohexyl-1-methyl-4-oxo-4,5-dihydro-1H-pyrazolo[3,4-d]pyrimidin-6-yl)-3-methoxybenzoic acid] | ≤ 1000 nM
4 | COc1cc(C(=O)N2CCN(C)CC2)ccc1-c1nc2c(c(C3CCCCC3)nn2C)c(=O)[nH]1 [Example 67, 3-Cyclohexyl-6-{2-methoxy-4-[(4-methyl-1-piperazinyl)carbonyl]phenyl}-1-methyl-1,5-dihydro-4H-pyrazolo[3,4-d]pyrimidin-4-one monomethanesulfonate] | ≤ 1000 nM
5 | COc1cc(C(=O)N2CCOCC2)ccc1-c1nc2c(c(C3CCCCC3)nn2C)c(=O)[nH]1 [Example 68, 3-Cyclohexyl-6-[2-methoxy-4-(4-morpholinylcarbonyl)phenyl]-1-methyl-1,5-dihydro-4H-pyrazolo[3,4-d]pyrimidin-4-one] | ≤ 1000 nM
6 | COc1cc(C(=O)N2CCC(O)CC2)ccc1-c1nc2c(c(C3CCCCC3)nn2C)c(=O)[nH]1 [Example 69, 3-Cyclohexyl-6-{4-[(4-hydroxy-1-piperidinyl)carbonyl]-2-methoxyphenyl}-1-methyl-1,5-dihydro-4H-pyrazolo[3,4-d]pyrimidin-4-one] | ≤ 1000 nM
7 | COc1cc(C(=O)N2CCC(OC)CC2)ccc1-c1nc2c(c(C3CCCCC3)nn2C)c(=O)[nH]1 [Example 70, 3-Cyclohexyl-6-{2-methoxy-4-[(4-methoxy-1-piperidinyl)carbonyl]phenyl}-1-methyl-1,5-dihydro-4H-pyrazolo[3,4-d]pyrimidin-4-one] | ≤ 1000 nM
8 | COc1cc(C(=O)NCC(=O)O)ccc1-c1nc2c(c(C3CCCCC3)nn2C)c(=O)[nH]1 [Example 72, {[4-(3-Cyclohexyl-1-methyl-4-oxo-4,5-dihydro-1H-pyrazolo[3,4-d]pyrimidin-6-yl)-3-methoxybenzoyl]amino}acetic acid] | ≤ 1000 nM
9 | COCCN(C)c1ccc(-c2nc3c(c(C4CCCCC4)nn3C)c(=O)[nH]2)c(OC)c1 [Example 73, 3-Cyclohexyl-6-{2-methoxy-4-[(2-methoxyethyl)(methyl)amino]phenyl}-1-methyl-1,5-dihydro-4H-pyrazolo[3,4-d]pyrimidin-4-one] | ≤ 10 nM
10 | COc1ccc(F)cc1-c1nc2c(c(C3CCCCC3)nn2C)c(=O)[nH]1 [Example 74, 3-Cyclohexyl-6-(5-fluoro-2-methoxyphenyl)-1-methyl-1,5-dihydro-4H-pyrazolo[3,4-d]pyrimidin-4-one] | ≤ 1000 nM
11 | COc1cc(N2CCC(C(=O)O)CC2)ccc1-c1nc2c(c(C3CCCCC3)nn2C)c(=O)[nH]1 [Example 76] | ≤ 10 nM
12 | COc1cc(N2CCNCC2)ccc1-c1nc2c(c(C3CCCCCC3)nn2C)c(=O)[nH]1 [Example 78, 3-Cycloheptyl-6-[2-methoxy-4-(1-piperazinyl)phenyl]-1-methyl-1,5-dihydro-4H-pyrazolo[3,4-d]pyrimidin-4-one monomethanesulfonate] | ≤ 10 nM
13 | COc1cc(N2CCNCC2)c(F)cc1-c1nc2c(c(C3CCCCC3)nn2C)c(=O)[nH]1 [Example 81, monomethanesulfonate] | ≤ 10 nM
14 | COc1cc(N2CCN(C)CC2)c(F)cc1-c1nc2c(c(C3CCCCC3)nn2C)c(=O)[nH]1 [Example 82, 3-Cyclohexyl-6-[5-fluoro-2-methoxy-4-(4-methyl-1-piperazinyl)phenyl]-1-methyl-1,5-dihydro-4H-pyrazolo[3,4-d]pyrimidin-4-one] | ≤ 10 nM
15 | CNCCN(C)c1ccc(-c2nc3c(c(C4CCCCC4)nn3C)c(=O)[nH]2)c(OC)c1 [Example 84, 3-Cyclohexyl-6-(2-methoxy-4-{methyl[2-(methylamino)ethyl]amino}phenyl)-1-methyl-1,5-dihydro-4H-pyrazolo[3,4-d]pyrimidin-4-one monomethanesulfonate] | ≤ 10 nM
16 | CCOc1cc(N2CCN(C)CC2)ccc1-c1nc2c(c(C3CCCCC3)nn2C)c(=O)[nH]1 [Example 87, 3-Cyclohexyl-6-[2-ethoxy-4-(4-methyl-1-piperazinyl)phenyl]-1-methyl-1,5-dihydro-4H-pyrazolo[3,4-d]pyrimidin-4-one monomethanesulfonate] | ≤ 10 nM
17 | CCOc1cc(N2CCC(NC)CC2)ccc1-c1nc2c(c(C3CCCCC3)nn2C)c(=O)[nH]1 [Example 90, 3-Cyclohexyl-6-{2-ethoxy-4-[4-(methylamino)-1-piperidinyl]phenyl}-1-methyl-1,5-dihydro-4H-pyrazolo[3,4-d]pyrimidin-4-one monomethanesulfonate] | ≤ 10 nM
18 | CNC1CCN(c2ccc(-c3nc4c(C)nn(C5CCCCC5)c4c(=O)[nH]3)c(OC)c2)CC1 [Example 92, 1-Cyclohexyl-5-{2-methoxy-4-[4-(methylamino)-1-piperidinyl]phenyl}-3-methyl-1,6-dihydro-7H-pyrazolo[4,3-d]pyrimidin-7-one] | ≤ 10 nM
19 | CNC1CCN(c2ccc(-c3nc4c(c(C5CCCCCC5)nn4C)c(=O)[nH]3)c(OC)c2)CC1 [Example 95, 3-Cycloheptyl-6-{2-methoxy-4-[4-(methylamino)-1-piperidinyl]phenyl}-1-methyl-1,5-dihydro-4H-pyrazolo[3,4-d]pyrimidin-4-one monomethanesulfonate] | ≤ 10 nM
20 | CCNC1CCN(c2ccc(-c3nc4c(c(C5CCCCC5)nn4C)c(=O)[nH]3)c(OC)c2)CC1 [Example 97, 3-Cyclohexyl-6-{2-methoxy-4-[4-(ethylamino)-1-piperidinyl]phenyl}-1-methyl-1,5-dihydro-4H-pyrazolo[3,4-d]pyrimidin-4-one] | ≤ 10 nM
21 | CCNC1CCN(c2ccc(-c3nc4c(C)nn(C5CCCCC5)c4c(=O)[nH]3)c(OC)c2)CC1 [Example 99, 1-Cyclohexyl-5-{2-methoxy-4-[4-(ethylamino)-1-piperidinyl]phenyl}-3-methyl-1,6-dihydro-7H-pyrazolo[4,3-d]pyrimidin-7-one] | ≤ 1000 nM
22 | CNCCN(C)c1ccc(-c2nc3c(C)nn(C4CCCCC4)c3c(=O)[nH]2)c(OC)c1 [Example 103, 1-Cyclohexyl-5-(2-methoxy-4-{methyl[2-(methylamino)ethyl]amino}phenyl)-3-methyl-1,6-dihydro-7H-pyrazolo[4,3-d]pyrimidin-7-one monofumarate] | ≤ 10 nM
23 | COc1cc(N(C)CCO)ccc1-c1nc2c(C)nn(C3CCCCC3)c2c(=O)[nH]1 [Example 107, 1-Cyclohexyl-5-{4-[(2-hydroxyethyl)(methyl)amino]-2-methoxyphenyl}-3-methyl-1,6-dihydro-7H-pyrazolo[4,3-d]pyrimidin-7-one] | ≤ 10 nM
24 | COc1cc(N2CCC(CO)CC2)ccc1-c1nc2c(C)nn(C3CCCCC3)c2c(=O)[nH]1 [Example 109, 1-Cyclohexyl-5-{4-[4-(hydroxymethyl)-1-piperidinyl]-2-methoxyphenyl}-3-methyl-1,6-dihydro-7H-pyrazolo[4,3-d]pyrimidin-7-one] | ≤ 10 nM
